Measured values as given in PubChem BioAssay (NCI).
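Cells were grown in 96-well plates and exposed to each compound for 48 hours at five concentrations; endpoints were interpolated linearly between bracketing concentrations, or set to the highest concentration if not reached. The concentration for 50% growth inhibition is given as GI50. TGI is the concentration that stops growth completely.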

How the values were obtained:
Test in all cases: NCI anticancer screen, dose series, 48 h
HOP-62 NSCLC = test system: HOP-62 NSCLC
NCI-H23 lung = test system: NCI-H23 lung
MOLT-4 leukemia = test system: MOLT-4 leukemia
HCT-15 colon = test system: HCT-15 colon
A549 NSCLC = test system: A549 NSCLC
MCF7 breast = test system: MCF7 breast
U251 CNS = test system: U251 CNS
RXF 393 renal = test system: RXF 393 renal
DU-145 prostate = test system: DU-145 prostate
SNB-19 CNS = test system: SNB-19 CNS

| SMILES | TGI (HOP-62 NSCLC) [µM] | TGI (NCI-H23 lung) [µM] | TGI (MOLT-4 leukemia) [µM] | TGI (HCT-15 colon) [µM] | TGI (A549 NSCLC) [µM] | TGI (MCF7 breast) [µM] | TGI (U251 CNS) [µM] | TGI (RXF 393 renal) [µM] | TGI (DU-145 prostate) [µM] | TGI (SNB-19 CNS) [µM] | GI50 (HOP-62 NSCLC) [µM] | GI50 (NCI-H23 lung) [µM] | GI50 (MOLT-4 leukemia) [µM] | GI50 (HCT-15 colon) [µM] | GI50 (A549 NSCLC) [µM] | GI50 (MCF7 breast) [µM] | GI50 (U251 CNS) [µM] | GI50 (RXF 393 renal) [µM] | GI50 (DU-145 prostate) [µM] | GI50 (SNB-19 CNS) [µM] |
| --- | --- | --- | --- | --- | --- | --- | --- | --- | --- | --- | --- | --- | --- | --- | --- | --- | --- | --- | --- | --- |
| N#Cc1cnn2ccn(C3OC(COC(=O)c4ccccc4)C(OC(=O)c4ccccc4)C3OC(=O)c3ccccc3)c12 (stereo not given) | > 21.5 | > 21.5 | > 21.5 | > 21.5 | > 21.5 | > 46.4 | > 21.5 | > 21.5 | > 21.5 | > 21.5 |  |  |  |  |  |  |  |  |  |  |
| N#Cc1c(O)c2c(c(O)c1C#N)C(=O)c1ccccc1C2=O | 10.5 | 2.7 | 5.07 | > 28.1 | 8.02 | 3.76 | 5.54 | 6.27 | 2.5 | 22.2 | 3.44 | 0.621 | 2.07 | 2.32 | 1.62 | 1.46 | 1.92 | 1.86 | 1.19 | 2.86 |
| CC(=O)c1ccc(N(/C=C/C(=O)C(F)(F)F)CC(=O)c2ccc(Cl)c(Cl)c2)cc1 | 28.7 | 35.6 | 27.2 | 29.2 | 33.5 | 65.3 | 27.7 | 30.4 | 36.1 | 41.6 | 15.3 | 18 | 4.18 | 13.4 | 14.2 | 15.3 | 14 | 13.9 | 19.2 | 19.3 |
| O=[n+]1c(CBr)c(CBr)n([O-])c2ccccc21 | 37.5 | 29.4 | 14.7 | 3.48 | 35.6 | 12.4 | 29.8 | 16.9 | 18.4 | 38.3 | 17.8 | 14.8 | 3.62 | 1.82 | 17.4 | 3.11 | 14.5 | 4.66 | 5.8 | 17.6 |
| COc1cccc(-c2nc(-c3cnccn3)n(Cc3ccccc3)n2)c1 | > 100 | > 100 | > 100 | > 100 | > 100 | > 100 | > 100 | 64 | > 100 | > 100 |  |  |  |  |  |  |  |  |  |  |
| CN=C1NC(=O)/C(=C/c2ccc3ncccc3c2)S1 | > 25 | > 25 | > 25 | > 25 | > 25 | > 25 | > 25 | > 25 | > 25 | > 25 | 10.3 | 8.38 | 11.2 | 6.09 | 5.13 | 6.21 | 5.19 | 8.08 | 5.78 | 9.5 |
| COc1cc2c(c(O)c1C)C(=O)C(Cl)=CC2=O | > 69.2 | 25 | 8.66 | 27.6 | 55.8 | 15.8 | 47.3 | 13.1 | 13.3 | > 86.4 |  |  |  |  |  |  |  |  |  |  |
| N#Cc1nc(-c2ccc(F)cc2)oc1S(=O)(=O)N1CCOCC1 | 37.9 | 25.4 | 5.49 | 5.37 | 38.7 | 11.7 | 31.5 | 2.92 | 6.07 | 28 | 10.8 | 10.4 | 2.02 | 1.98 | 18.2 | 2.65 | 14.5 | 1.49 | 2.23 | 13.7 |
| O=C(O)Cc1c[nH]c2ccc(F)cc12 | > 100 | > 100 | > 100 | > 100 | > 100 | > 100 | > 100 | > 100 | > 100 | > 100 |  |  |  |  |  |  |  |  |  |  |
| O=C1CSC(N2CCN(c3cccc(Cl)c3)CC2)=N1 | > 100 | > 100 | > 100 | > 100 | > 100 | > 100 | > 100 | > 100 | > 100 | > 100 | > 100 | > 100 | > 100 | > 100 | > 100 | > 100 | > 100 | > 100 | > 100 | > 100 |
| Fc1ccc(-c2nn(-c3ccccc3)cc2-c2nc3ccccc3o2)cc1 | 33.4 | 11.7 | > 100 | 39 | 16.4 | > 100 | 16.5 | > 100 | 19.4 | 53.1 | 4.95 | 2.26 | 3.62 | 1.83 | 3.46 | 0.539 | 1.93 | 31.6 | 5.65 | 4.82 |
| O=C1CCC(NC(=O)c2ccccc2)C(=O)N1 (stereo not given) | > 100 | > 100 | 16.9 | > 100 | > 100 | > 100 | > 100 | > 100 | > 100 | > 100 |  |  |  |  |  |  |  |  |  |  |
| CCOC(=O)c1cc(-c2ccc([N+](=O)[O-])cc2)n(-c2ccc(C(=O)O)c(O)c2)c1C | 23.3 | 13.7 | 20.7 | 12.2 | 12.7 | 13.7 | 14.1 | 20.3 | 17.5 | 19.1 | 7.55 | 3.18 | 3.37 | 3.02 | 3.38 | 3.58 | 3.61 | 5.95 | 4.55 | 5.66 |
| CC1=C2[C@@H](CC1)[C@]1(C)O[C@@](C(C)C)(C[C@H]1OC(=O)[C@H](C)O)[C@H]2OC(=O)/C=C/c1ccccc1 | 29.3 | 33.3 | 32 | 25.4 | 28.9 | 23.5 | 28 | 2.41 | 31.9 | 37.2 | 13.9 | 14.3 | 10.7 | 11.2 | 12.5 | 8.15 | 14.2 | 0.111 | 15.9 | 17.1 |
